{"source": "patent US20070128217A1", "about": "(priority 2003, published 2007)", "key": {"[1]": {"tested_on": "control sera (pooled serum of ten healthy LUMC hospital workers; commercial negative donor pooled serum from the Dutch bloodbank)", "format": "binding, human", "set-up": "Binding of Control serum LUMC to linear peptides / Binding of Control serum Blood-bank to linear peptides / Binding of Control serum LUMC to looped peptides / Binding of Control Serum Blood-Bank to Looped peptides / Binding of Control serum LUMC to linear peptides of the protein M of SARS-CoV Urbani / Binding of Control serum Blood-bank to linear peptides of the protein M of SARS-CoV Urbani / Binding of Control serum LUMC to looped peptides of the protein M of SARS-CoV Urbani / Binding of Control Serum Blood-Bank to Looped peptides of the protein M of SARS-CoV Urbani: unit not given here"}, "[2]": {"tested_on": "rabbit serum obtained by immunizing a rabbit with the SARS-CoV strain Frankfurt 1", "format": "binding", "set-up": "Binding of a rabbit serum to linear peptides / Binding of a rabbit serum to looped peptides / Rabbit serum linear peptides / Rabbit serum looped peptides / Binding of a rabbit serum to linear peptides of protein N of SARS-CoV Urbani (Rabbit serum linear peptides) / Binding of a rabbit serum to looped/cyclic peptides of protein N of SARS-CoV Urbani (Rabbit serum looped peptides): unit not given here"}, "[3]": {"tested_on": "antibodies in sera from SARS patients (sera 1a, 1b, 2, 6, 37, 62, London, SARS-yellow, SARS-green)", "format": "binding, human", "set-up": "Binding of serum 6 to linear peptides of protein X1 of SARS-CoV Urbani / Binding of serum 37 to linear peptides of protein X1 of SARS-CoV Urbani / Binding of serum 6 to looped/cyclic peptide (PEPSCAN-ELISA) / Binding of serum 37 to looped/cyclic peptide (PEPSCAN-ELISA) / Binding of serum 37 to looped/cyclic peptides of protein X1 of SARS-CoV Urbani / Binding of serum 6 to linear peptides of protein X2 / Binding of serum 37 to linear peptides of protein X2 / Binding of serum 37 to looped/cyclic peptides of protein X2 of SARS-CoV Urbani / Binding of serum 6 to linear peptides of protein M of SARS-CoV Urbani / Binding of serum 37 to linear peptides of protein M of SARS-CoV Urbani / Binding of serum 6 to looped/cyclic peptides of protein M of SARS-CoV Urbani / Binding of serum 37 to looped/cyclic peptides of protein M of SARS-CoV Urbani / Binding of serum 6 to linear peptides of protein X3 of SARS-CoV Urbani / Binding of serum 37 to linear peptides of protein X3 of SARS-CoV Urbani / Binding of serum 37 to looped/cyclic peptides of protein X3 of SARS-CoV Urbani / Binding of serum 6 to linear peptides of protein X4 of SARS-CoV Urbani / Binding of serum 37 to linear peptides of protein X4 of SARS-CoV Urbani / Binding of serum 37 to looped/cyclic peptides of protein X4 of SARS-CoV Urbani / Binding of serum 6 to linear peptides of protein X5 of SARS-CoV Urbani / Binding of serum 37 to linear peptides of protein X5 of SARS-CoV Urbani / Binding of serum 37 to looped/cyclic peptides of protein X5 of SARS-CoV Urbani / Binding of serum 6 to linear peptides of protein N of SARS-CoV Urbani / Binding of serum 37 to linear peptides of protein N of SARS-CoV Urbani / Binding of serum 6 to linear peptide (PEPSCAN-ELISA) / Binding of serum 1a to looped/cyclic peptides of protein N of SARS-CoV Urbani / Binding of serum 1b to looped/cyclic peptides of protein N of SARS-CoV Urbani / Binding of serum 2 to looped/cyclic peptides of protein N of SARS-CoV Urbani / Binding of serum 6 to looped/cyclic peptides of protein N of SARS-CoV Urbani / Binding of serum 37 to looped/cyclic peptides of protein N of SARS-CoV Urbani / Binding of serum 62 to looped/cyclic peptides of protein N of SARS-CoV Urbani / Binding of serum London to looped/cyclic peptides of protein N of SARS-CoV Urbani / Binding of serum SARS-green to looped/cyclic peptides of protein N of SARS-CoV Urbani: unit not given here"}}}
{"sequence": "NSVTDTIVVTEGDGI", "values": [{"measurement": "Binding of Control Serum Blood-Bank to Looped peptides", "setting": "[1]", "result": 0.4}, {"measurement": "Binding of Control serum Blood-bank to linear peptides", "setting": "[1]", "result": 0.3}, {"measurement": "Binding of Control serum LUMC to linear peptides", "setting": "[1]", "result": 0.4}, {"measurement": "Binding of Control serum LUMC to looped peptides", "setting": "[1]", "result": 0.5}, {"measurement": "Binding of a rabbit serum to linear peptides", "setting": "[2]", "result": 0.1}, {"measurement": "Binding of a rabbit serum to looped peptides", "setting": "[2]", "result": 0.5}, {"measurement": "Binding of serum 1a to linear peptides of protein X1 of SARS-CoV Urbani", "setting": "[3]", "result": 0.6}, {"measurement": "Binding of serum 1a to looped/cyclic peptides of protein X1 of SARS-CoV Urbani", "setting": "[3]", "result": 0.4}, {"measurement": "Binding of serum 1b to linear peptides of protein X1 of SARS-CoV Urbani", "setting": "[3]", "result": 0.5}, {"measurement": "Binding of serum 1b to looped/cyclic peptides of protein X1 of SARS-CoV Urbani", "setting": "[3]", "result": 0.3}, {"measurement": "Binding of serum 2 to linear peptides of protein X1 of SARS-CoV Urbani", "setting": "[3]", "result": 0.4}, {"measurement": "Binding of serum 2 to looped/cyclic peptides of protein X1 of SARS-CoV Urbani", "setting": "[3]", "result": 0.2}, {"measurement": "Binding of serum 6 to linear peptides of protein X1 of SARS-CoV Urbani", "setting": "[3]", "result": 0.4}, {"measurement": "Binding of serum 6 to looped/cyclic peptides of protein X1 of SARS-CoV Urbani", "setting": "[3]", "result": 0.2}, {"measurement": "Binding of serum 37 to linear peptides of protein X1 of SARS-CoV Urbani", "setting": "[3]", "result": 0.5}, {"measurement": "Binding of serum 37 to looped/cyclic peptides of protein X1 of SARS-CoV Urbani", "setting": "[3]", "result": 0.4}, {"measurement": "Binding of serum 62 to linear peptides of protein X1 of SARS-CoV Urbani", "setting": "[3]", "result": 0.4}, {"measurement": "Binding of serum 62 to looped/cyclic peptides of protein X1 of SARS-CoV Urbani", "setting": "[3]", "result": 0.4}, {"measurement": "Binding of serum London to linear peptides of protein X1 of SARS-CoV Urbani", "setting": "[3]", "result": 0.2}, {"measurement": "Binding of serum London to looped/cyclic peptides of protein X1 of SARS-CoV Urbani", "setting": "[3]", "result": 0.2}, {"measurement": "Binding of serum SARS-green to linear peptides of protein X1 of SARS-CoV Urbani", "setting": "[3]", "result": 0.2}, {"measurement": "Binding of serum SARS-green to looped/cyclic peptides of protein X1 of SARS-CoV Urbani", "setting": "[3]", "result": 0.3}, {"measurement": "Binding of serum SARS-yellow to linear peptides of protein X1 of SARS-CoV Urbani", "setting": "[3]", "result": 0.6}, {"measurement": "Binding of serum SARS-yellow to looped/cyclic peptides of protein X1 of SARS-CoV Urbani", "setting": "[3]", "result": 0.3}]}
{"sequence": "NTRGNTYSTAWLCAL", "values": [{"measurement": "Binding of Control Serum Blood-Bank to Looped peptides", "setting": "[1]", "result": 0.4}, {"measurement": "Binding of Control serum Blood-bank to linear peptides", "setting": "[1]", "result": 0.8}, {"measurement": "Binding of Control serum LUMC to linear peptides", "setting": "[1]", "result": 0.7}, {"measurement": "Binding of Control serum LUMC to looped peptides", "setting": "[1]", "result": 0.5}, {"measurement": "Rabbit serum linear peptides", "setting": "[2]", "result": 0.8}, {"measurement": "Rabbit serum looped peptides", "setting": "[2]", "result": 0.5}, {"measurement": "Binding of serum 1a to linear peptides of protein X5 of SARS-CoV Urbani", "setting": "[3]", "result": 0.9}, {"measurement": "Binding of serum 1a to looped/cyclic peptides of protein X5 of SARS-CoV Urbani", "setting": "[3]", "result": 0.4}, {"measurement": "Binding of serum 1b to linear peptides of protein X5 of SARS-CoV Urbani", "setting": "[3]", "result": 0.6}, {"measurement": "Binding of serum 1b to looped/cyclic peptides of protein X5 of SARS-CoV Urbani", "setting": "[3]", "result": 0.2}, {"measurement": "Binding of serum 2 to linear peptides of protein X5 of SARS-CoV Urbani", "setting": "[3]", "result": 0.6}, {"measurement": "Binding of serum 2 to looped/cyclic peptides of protein X5 of SARS-CoV Urbani", "setting": "[3]", "result": 0.4}, {"measurement": "Binding of serum 6 to linear peptides of protein X5 of SARS-CoV Urbani", "setting": "[3]", "result": 0.7}, {"measurement": "Binding of serum 6 to looped/cyclic peptides of protein X5 of SARS-CoV Urbani", "setting": "[3]", "result": 0.2}, {"measurement": "Binding of serum 37 to linear peptides of protein X5 of SARS-CoV Urbani", "setting": "[3]", "result": 0.7}, {"measurement": "Binding of serum 37 to looped/cyclic peptides of protein X5 of SARS-CoV Urbani", "setting": "[3]", "result": 0.5}, {"measurement": "Binding of serum 62 to linear peptides of protein X5 of SARS-CoV Urbani", "setting": "[3]", "result": 0.7}, {"measurement": "Binding of serum 62 to looped/cyclic peptides of protein X5 of SARS-CoV Urbani", "setting": "[3]", "result": 0.7}, {"measurement": "Binding of serum London to linear peptides of protein X5 of SARS-CoV Urbani", "setting": "[3]", "result": 0.7}, {"measurement": "Binding of serum London to looped/cyclic peptides of protein X5 of SARS-CoV Urbani", "setting": "[3]", "result": 0.1}, {"measurement": "Binding of serum SARS-green to linear peptides of protein X5 of SARS-CoV Urbani", "setting": "[3]", "result": 0.6}, {"measurement": "Binding of serum SARS-green to looped/cyclic peptides of protein X5 of SARS-CoV Urbani", "setting": "[3]", "result": 0.3}, {"measurement": "Binding of serum SARS-yellow to linear peptides of protein X5 of SARS-CoV Urbani", "setting": "[3]", "result": 0.5}, {"measurement": "Binding of serum SARS-yellow to looped/cyclic peptides of protein X5 of SARS-CoV Urbani", "setting": "[3]", "result": 0.5}]}
